Patent EP0742215A1, “Cillianon, antibiotic from penicillin spe., and chemical derivatives thereof, method for their preparation and application” (HOECHST AKTIENGESELLSCHAFT, priority 1995, dated 1996)

Tests used:
[1] = Solubility (physicochemical properties, Table 1); settings: in Methanol, Acetonitril, Chloroform und Benzol
Text: (§1) Die physikalisch-chemisch sowie spektroskopischen Eigenschaften von Cillianon lassen sich wie folgt zusammenfassen: Tabelle 1

[2] = biological target: T1, humanen IL-4 Rezeptor (huIL-4R/Fc) (Homo sapiens, UniProt P24394); experiment: Cell-free huIL-4 binding assay (IL-4 receptor test, ELISA with receptor/Fc fusion protein and biotinylated ligand); settings: huIL-4R/Fc 500 ng/ml; biotinylated huIL-4 100 ng/ml; 1 h room temperature; PBSA with 5 % DMSO; Abbildung 3
T1 construct: die aus der extrazellulären Region von normalerweise membranständigen Rezeptoren bestehen
T1 sequence (P24394 26-232 limits assumed): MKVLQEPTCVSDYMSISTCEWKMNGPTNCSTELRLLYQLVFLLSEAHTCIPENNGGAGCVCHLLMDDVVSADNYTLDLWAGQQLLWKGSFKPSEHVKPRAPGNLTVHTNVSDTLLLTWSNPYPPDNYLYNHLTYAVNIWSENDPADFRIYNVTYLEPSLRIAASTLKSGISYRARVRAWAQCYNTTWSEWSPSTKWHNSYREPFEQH
Text: Aus der EP 488 170 A1 sind zellfreie Bindungsteste bekannt. Für ihre Durchführung werden rekombinante chimäre Proteine verwendet, die aus der extrazellulären Region von normalerweise membranständigen Rezeptoren bestehen, an deren Carboxyterminus die Fc-Region einer schweren Immunglobulinkette bestehend aus Hinge-, CH2- und CH3-Domäne fusioniert wurde. Diese sogenannten Rezeptor/Fc-Fusionsproteine können unter Erhalt der spezifischen Rezeptorbindungsaktivität an Festphasen gebunden werden, die beispielsweise mit monoklonalen Antikörpern gerichtet gegen den Fc-Teil vorbeschichtet wurden. Als Festphase wurden für dieses Beispiel ®Nunc Typ B ELISA-Platten verwendet. Rezeptor/Fc-Fusionsproteine gelöst in PBS enthaltend 10 mg/ml BSA (PBSA) wurden an diese vorbehandelten Platten gebunden (huIL-4R/Fc: 500 ng/ml; muIL-4R/Fc: 250 ng/ml; huIL-1R/Fc: 125 ng/ml; 1 h bei Raumtemperatur). Nach Waschen wurden die Peptide beziehungsweise die jeweiligen spezifischen unmarkierten Liganden (huIL-4R/Fc: huIL-4; muIL-4R/Fc: muIL-4; huIL-1R/Fc:huIL-1ra) in variierenden Konzentrationen und danach die spezifischen Liganden in biotinylierender Form in einer festen Konzentration zugegeben (100 ng/ml). Die Inkubation erfolgte 1 h bei Raumtemperatur in PBSA enthaltend 5 % DMSO. Nach Waschen erfolgte eine Inkubation mit Streptavidin/Peroxidase (Amersham, 1:2000 in PBSA) für 20 min bei Raumtemperatur. […]

[3] = Stability (physicochemical properties, Table 1)
Text: as §1

Compound: Cc1cc(O)c2c3c(c(O)c4c(c13)OC(C)C4(C)C)C(=O)C(O)(O)C2=O (centres unmarked) [Cillianon]
- Löslichkeit [1]: lösliche
- IC50 [2]: 55.8 µM
- Stabilität ([3]; im sauren Milieu): stabil
- Stabilität ([3]; in wässrigem Alkali): unbeständig
- Stabilität ([3]; unter Lichteinwirkung): unbeständig
